Source: ChEMBL document CHEMBL3232945 (Eur J Med Chem, 2014)

How the values were obtained:
Rattus norvegicus [1] = assay: Toxicity in […] normotensive Wistar rat assessed as mean arterial pressure at 40 mg/kg, ip after 60 mins (reference value: 95.07 +/- 1.973 mmHg); format: organism-based, Artery; parameters: dose 40 mg/kg, route intraperitoneal; conditions: in vivo, 1 h
Rattus norvegicus [2] = assay: Antihypertensive activity in Wistar rat assessed as mean arterial pressure at 40 mg/kg, ip measured immediately at 0 min (reference value: 194.08 +/- 1.962 mmHg); format: functional, Artery; conditions: route intraperitoneal
Rattus norvegicus [3] = assay: Antihypertensive activity in Wistar rat assessed as mean arterial pressure at 40 mg/kg, ip after 15 mins (reference value: 195.68 +/- 1.623 mmHg); format: functional, Artery; conditions: route intraperitoneal
Rattus norvegicus [4] = assay: Antihypertensive activity in Wistar rat assessed as mean arterial pressure at 40 mg/kg, ip after 30 mins (reference value: 194.72 +/- 1.002 mmHg); format: functional, Artery; conditions: route intraperitoneal
Rattus norvegicus [5] = assay: Antihypertensive activity in Wistar rat assessed as mean arterial pressure at 40 mg/kg, ip after 45 mins (reference value: 193.96 +/- 0.865 mmHg); format: functional, Artery; conditions: route intraperitoneal
Rattus norvegicus [6] = assay: Antihypertensive activity in Wistar rat assessed as mean arterial pressure at 40 mg/kg, ip after 60 mins (reference value: 195.11 +/- 0.531 mmHg); format: functional, Artery; conditions: route intraperitoneal
Rattus norvegicus [7] = assay: Toxicity in anesthetized-normotensive Wistar rat assessed as heart rate at 40 mg/kg, ip measured immediately at 0 min (reference value: 316.62 +/- 9.643 bpm); format: organism-based; parameters: dose 40 mg/kg, route intraperitoneal; conditions: in vivo, 0 h
Rattus norvegicus [8] = assay: Toxicity in anesthetized-normotensive Wistar rat assessed as heart rate at 40 mg/kg, ip after 15 mins (reference value: 313.93 +/- 9.912 bpm); format: organism-based; parameters: dose 40 mg/kg, route intraperitoneal; conditions: in vivo, 0.25 h
Rattus norvegicus [9] = assay: Toxicity in anesthetized-normotensive Wistar rat assessed as heart rate at 40 mg/kg, ip after 30 mins (reference value: 317.68 +/- 7.631 bpm); format: organism-based; parameters: dose 40 mg/kg, route intraperitoneal; conditions: in vivo, 0.5 h
Rattus norvegicus [10] = assay: Toxicity in anesthetized-normotensive Wistar rat assessed as heart rate at 40 mg/kg, ip after 45 mins (reference value: 316.82 +/- 8.452 bpm); format: organism-based; parameters: dose 40 mg/kg, route intraperitoneal; conditions: in vivo, 0.75 h
Rattus norvegicus [11] = assay: Toxicity in anesthetized-normotensive Wistar rat assessed as heart rate at 40 mg/kg, ip after 60 mins (reference value: 314.96 +/- 9.442 bpm); format: organism-based; parameters: dose 40 mg/kg, route intraperitoneal; conditions: in vivo, 1 h
Rattus norvegicus [12] = assay: Antiarrhythmic activity in barium chloride-induced Wistar rat assessed as increase in appearance time of arrhythmia at 40 mg/kg, ip administered 60 mins before barium chloride challenge (reference value: 129.4 +/- 4.373 sec); format: functional, Heart; conditions: route intraperitoneal
Rattus norvegicus [13] = assay: Antiarrhythmic activity in barium chloride-induced Wistar rat assessed as increase in mortality time at 40 mg/kg, ip administered 60 mins before barium chloride challenge (reference value: 682.8 +/- 9.656 secs); format: functional, Heart; conditions: route intraperitoneal
Rattus norvegicus [14] = assay: Toxicity in anaesthetized-Wistar rat assessed as P-Q ECG interval at 40 mg/kg, ip measured immediately at 0 min (reference value: 52.4 +/- 0.927 ms); format: organism-based; parameters: dose 40 mg/kg, route intraperitoneal; conditions: in vivo, 0 h
Rattus norvegicus [15] = assay: Toxicity in anaesthetized-Wistar rat assessed as QRS ECG interval at 40 mg/kg, ip measured immediately at 0 min (reference value: 19.6 +/- 1.142 ms); format: organism-based; parameters: dose 40 mg/kg, route intraperitoneal; conditions: in vivo, 0 h
Rattus norvegicus [16] = assay: Toxicity in anaesthetized-Wistar rat assessed as Q-T ECG interval at 40 mg/kg, ip measured immediately at 0 min (reference value: 78.8 +/- 1.030 ms); format: organism-based; parameters: dose 40 mg/kg, route intraperitoneal; conditions: in vivo, 0 h
Rattus norvegicus [17] = assay: Toxicity in anaesthetized-Wistar rat assessed as P-Q ECG interval at 40 mg/kg, ip after 15 mins (reference value: 52.2 +/- 1.158 ms); format: organism-based; parameters: dose 40 mg/kg, route intraperitoneal; conditions: in vivo, 0.25 h
Rattus norvegicus [18] = assay: Toxicity in anaesthetized-Wistar rat assessed as QRS ECG interval at 40 mg/kg, ip after 15 mins (reference value: 18.9 +/- 1.563 ms); format: organism-based; parameters: dose 40 mg/kg, route intraperitoneal; conditions: in vivo, 0.25 h
Rattus norvegicus [19] = assay: Toxicity in anaesthetized-Wistar rat assessed as Q-T ECG interval at 40 mg/kg, ip after 15 mins (reference value: 79.4 +/- 1.270 ms); format: organism-based; parameters: dose 40 mg/kg, route intraperitoneal; conditions: in vivo, 0.25 h
Rattus norvegicus [20] = assay: Toxicity in anaesthetized-Wistar rat assessed as P-Q ECG interval at 40 mg/kg, ip after 30 mins (reference value: […] +/- 0.927 ms); format: organism-based; parameters: dose 40 mg/kg, route intraperitoneal; conditions: in vivo, 0.5 h
Rattus norvegicus [21] = assay: Toxicity in anaesthetized-Wistar rat assessed as QRS ECG interval at 40 mg/kg, ip after 30 mins (reference value: 19.9 +/- 1.393 ms); format: organism-based; parameters: dose 40 mg/kg, route intraperitoneal; conditions: in vivo, 0.5 h
Rattus norvegicus [22] = assay: Toxicity in anaesthetized-Wistar rat assessed as Q-T ECG interval at 40 mg/kg, ip after 30 mins (reference value: 78.3 +/- 0.860 ms); format: organism-based; parameters: dose 40 mg/kg, route intraperitoneal; conditions: in vivo, 0.5 h
Rattus norvegicus [23] = assay: Toxicity in anaesthetized-Wistar rat assessed as P-Q ECG interval at 40 mg/kg, ip after 45 mins (reference value: 52.5 +/- 0.780 ms); format: organism-based; parameters: dose 40 mg/kg, route intraperitoneal; conditions: in vivo, 0.75 h
Rattus norvegicus [24] = assay: Toxicity in anaesthetized-Wistar rat assessed as QRS ECG interval at 40 mg/kg, ip after 45 mins (reference value: 20.2 +/- 1.348 ms); format: organism-based; parameters: dose 40 mg/kg, route intraperitoneal; conditions: in vivo, 0.75 h
Rattus norvegicus [25] = assay: Toxicity in anaesthetized-Wistar rat assessed as Q-T ECG interval at 40 mg/kg, ip after 45 mins (reference value: 78.8 +/- 0.927 ms); format: organism-based; parameters: dose 40 mg/kg, route intraperitoneal; conditions: in vivo, 0.75 h
Rattus norvegicus [26] = assay: Toxicity in anaesthetized-Wistar rat assessed as P-Q ECG interval at 40 mg/kg, ip after 60 mins (reference value: […] +/- 0.924 ms); format: organism-based; parameters: dose 40 mg/kg, route intraperitoneal; conditions: in vivo, 1 h
Rattus norvegicus [27] = assay: Toxicity in anaesthetized-Wistar rat assessed as QRS ECG interval at 40 mg/kg, ip after 60 mins (reference value: 19.3 +/- 0.873 ms); format: organism-based; parameters: dose 40 mg/kg, route intraperitoneal; conditions: in vivo, 1 h
Rattus norvegicus [28] = assay: Toxicity in anaesthetized-Wistar rat assessed as Q-T ECG interval at 40 mg/kg, ip after 60 mins (reference value: 79.7 +/- 0.965 ms); format: organism-based; parameters: dose 40 mg/kg, route intraperitoneal; conditions: in vivo, 1 h
Rattus norvegicus [29] = assay: Toxicity in […] normotensive Wistar rat assessed as mean arterial pressure at 40 mg/kg, ip measured immediately at 0 min (reference value: 94.21 +/- 2.065 mmHg); format: organism-based, Artery; parameters: dose 40 mg/kg, route intraperitoneal; conditions: in vivo, 0 h
Rattus norvegicus [30] = assay: Toxicity in […] normotensive Wistar rat assessed as mean arterial pressure at 40 mg/kg, ip after 15 mins (reference value: 93.81 +/- 1.543 mmHg); format: organism-based, Artery; parameters: dose 40 mg/kg, route intraperitoneal; conditions: in vivo, 0.25 h
Rattus norvegicus [31] = assay: Toxicity in […] normotensive Wistar rat assessed as mean arterial pressure at 40 mg/kg, ip after 30 mins (reference value: 94.68 +/- 1.213 mmHg); format: organism-based, Artery; parameters: dose 40 mg/kg, route intraperitoneal; conditions: in vivo, 0.5 h
Rattus norvegicus [32] = assay: Toxicity in […] normotensive Wistar rat assessed as mean arterial pressure at 40 mg/kg, ip after 45 mins (reference value: 94.83 +/- 0.943 mmHg); format: organism-based, Artery; parameters: dose 40 mg/kg, route intraperitoneal; conditions: in vivo, 0.75 h

Row | Structure (SMILES) | Activity (Rattus norvegicus [1]) | Activity (Rattus norvegicus [2]) | Activity (Rattus norvegicus [3]) | Activity (Rattus norvegicus [4]) | Activity (Rattus norvegicus [5]) | Activity (Rattus norvegicus [6]) | Activity (Rattus norvegicus [7]) | Activity (Rattus norvegicus [8]) | Activity (Rattus norvegicus [9]) | Activity (Rattus norvegicus [10]) | Activity (Rattus norvegicus [11]) | Time (Rattus norvegicus [12]) | Time (Rattus norvegicus [13]) | Activity (Rattus norvegicus [14]) | Activity (Rattus norvegicus [15]) | Activity (Rattus norvegicus [16]) | Activity (Rattus norvegicus [17]) | Activity (Rattus norvegicus [18]) | Activity (Rattus norvegicus [19]) | Activity (Rattus norvegicus [20]) | further results
1 | CCN(CC)CC(O)CN1C(=O)/C(=C\c2ccccc2)S/C1=N\c1ccccc1 (stereo unspecified) | 73.31 mmHg | 194.43 mmHg | 172.98 mmHg | 161.27 mmHg | 119.43 mmHg | 159.87 mmHg | 319.65 bpm | 312.24 bpm | 274.66 bpm | 309.56 bpm | 312.28 bpm | 343.1 s | 1142.4 s | 52 ms | 18.4 min | 80.4 min | 52.2 min | 19.4 min | 81.4 min | 53.8 min | Activity (Rattus norvegicus [21]): 21.2 ms; Activity (Rattus norvegicus [22]): 83.2 min; Activity (Rattus norvegicus [23]): 54.2 min; Activity (Rattus norvegicus [24]): 20.6 min; Activity (Rattus norvegicus [25]): 84.8 min; Activity (Rattus norvegicus [26]): 55.6 min; Activity (Rattus norvegicus [27]): 21.4 min; Activity (Rattus norvegicus [28]): 86.4 ms; Activity (Rattus norvegicus [29]): 91.39 mmHg; Activity (Rattus norvegicus [30]): 79.23 mmHg; Activity (Rattus norvegicus [31]): 68.93 mmHg; Activity (Rattus norvegicus [32]): 63.51 mmHg
2 | O=C1/C(=C\c2ccccc2)S/C(=N\c2ccccc2)N1CC(O)CN(c1ccccc1)c1ccccc1 (stereo unspecified) | 90.27 mmHg | 194.26 mmHg | 183.55 mmHg | 169.59 mmHg | 159.27 mmHg | 169.93 mmHg | 316.34 bpm | 305.46 bpm | 292.41 bpm | 289.26 bpm | 302.92 bpm | 234.8 s | 768.5 s | 50.6 ms | 20.3 min | 70.2 min | 51.2 min | 21.2 min | 71.5 min | 54.1 min | Activity (Rattus norvegicus [21]): 22.1 ms; Activity (Rattus norvegicus [22]): 72.3 min; Activity (Rattus norvegicus [23]): 53.4 min; Activity (Rattus norvegicus [24]): 21.6 min; Activity (Rattus norvegicus [25]): 0.00119 min; Activity (Rattus norvegicus [26]): 52.6 min; Activity (Rattus norvegicus [27]): 20.4 min; Activity (Rattus norvegicus [28]): 70.7 ms; Activity (Rattus norvegicus [29]): 94.09 mmHg; Activity (Rattus norvegicus [30]): 87.32 mmHg; Activity (Rattus norvegicus [31]): 85.08 mmHg; Activity (Rattus norvegicus [32]): 85.43 mmHg
3 | CCCN(CCC)CC(O)CN1C(=O)/C(=C\c2ccccc2)S/C1=N\c1ccccc1 (stereo unspecified) | 88.98 mmHg | 193.57 mmHg | 184.76 mmHg | 170.1 mmHg | 153.26 mmHg | 172.23 mmHg | 329.62 bpm | 319.34 bpm | 289.52 bpm | 305.32 bpm | 312.43 bpm | 266.1 s | 938.4 s | 49.4 ms | 22.8 min | 72.5 min | 49.7 min | 23.2 min | 72.9 min | 51.3 min | Activity (Rattus norvegicus [21]): 23.8 ms; Activity (Rattus norvegicus [22]): 73.4 min; Activity (Rattus norvegicus [23]): 52.4 min; Activity (Rattus norvegicus [24]): 24.1 min; Activity (Rattus norvegicus [25]): 74.9 min; Activity (Rattus norvegicus [26]): 50.2 min; Activity (Rattus norvegicus [27]): 22.5 min; Activity (Rattus norvegicus [28]): 72.7 ms; Activity (Rattus norvegicus [29]): 95.41 mmHg; Activity (Rattus norvegicus [30]): 91.1 mmHg; Activity (Rattus norvegicus [31]): 79.16 mmHg; Activity (Rattus norvegicus [32]): 72.37 mmHg
